Consider 5 molecules from publication PMC7383607, “Kinetic and structural studies of Trypanosoma and Leishmania phosphofructokinases show evolutionary divergence and identify AMP as a switch regulating glycolysis versus gluconeogenesis” (The Febs Journal, 2020).

For series [1], the target named is T1, TbPFK (Trypanosoma brucei phosphofructokinase) (Trypanosoma brucei, UniProt O15648).
T1 construct: gene pfk; recombinant, E. coli, purified; N-terminal His6 tag (for SPR and reaction order tests); tetramer of 53-kDa subunits
T1 sequence (O15648 1-487): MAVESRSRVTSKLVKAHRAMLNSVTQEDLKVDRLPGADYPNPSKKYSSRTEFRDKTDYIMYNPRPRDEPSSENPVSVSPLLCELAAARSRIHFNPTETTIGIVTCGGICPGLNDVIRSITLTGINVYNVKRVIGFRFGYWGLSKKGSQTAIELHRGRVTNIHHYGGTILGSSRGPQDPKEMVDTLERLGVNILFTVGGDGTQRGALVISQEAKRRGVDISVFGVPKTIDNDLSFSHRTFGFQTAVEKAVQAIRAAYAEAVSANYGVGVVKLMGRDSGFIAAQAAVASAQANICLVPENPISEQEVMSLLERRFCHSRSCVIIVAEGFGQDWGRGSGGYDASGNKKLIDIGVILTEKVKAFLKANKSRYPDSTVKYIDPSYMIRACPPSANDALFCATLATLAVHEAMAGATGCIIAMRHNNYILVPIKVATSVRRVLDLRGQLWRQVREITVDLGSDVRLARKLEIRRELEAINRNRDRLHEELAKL
Kind of series: SPR steady state, His6-PFK captured on Ni-NTA chip. Format: binding. An excerpt: SPR steady state, His6-PFK captured on Ni-NTA chip on TbPFK (Trypanosoma brucei phosphofructokinase)

The target of series [2] is T2, LiPFK (Leishmania infantum phosphofructokinase) (Leishmania infantum, UniProt A4I4W5).
T2 construct: gene pfk; recombinant, E. coli, purified; N-terminal His6 tag (given for SPR); glycosomal homotetramer
T2 sequence (A4I4W5 1-486): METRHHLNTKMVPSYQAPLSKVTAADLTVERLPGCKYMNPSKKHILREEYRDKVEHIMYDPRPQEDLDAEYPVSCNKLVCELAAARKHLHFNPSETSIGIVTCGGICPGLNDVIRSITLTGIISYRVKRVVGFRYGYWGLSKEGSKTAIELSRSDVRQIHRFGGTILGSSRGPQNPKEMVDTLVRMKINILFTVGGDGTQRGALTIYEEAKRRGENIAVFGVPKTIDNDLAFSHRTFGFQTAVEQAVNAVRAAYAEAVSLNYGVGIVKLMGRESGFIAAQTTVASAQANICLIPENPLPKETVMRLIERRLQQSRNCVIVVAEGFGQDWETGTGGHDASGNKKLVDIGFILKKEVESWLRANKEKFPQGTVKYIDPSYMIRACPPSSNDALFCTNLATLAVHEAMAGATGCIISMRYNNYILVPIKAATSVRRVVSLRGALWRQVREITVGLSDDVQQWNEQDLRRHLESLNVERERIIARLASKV
As to the kind of experiment: SPR steady state, His6-PFK captured on Ni-NTA chip. Format: binding. An excerpt:
SPR steady state, His6-PFK captured on Ni-NTA chip on LiPFK (Leishmania infantum phosphofructokinase)

The target of series [3] is T3, TcPFK (Trypanosoma cruzi phosphofructokinase) (Trypanosoma cruzi, UniProt Q4E657).
T3 construct: gene pfk; recombinant, E. coli, purified; N-terminal His6 tag (given for SPR); glycosomal homotetramer
T3 sequence (Q4E657 1-485): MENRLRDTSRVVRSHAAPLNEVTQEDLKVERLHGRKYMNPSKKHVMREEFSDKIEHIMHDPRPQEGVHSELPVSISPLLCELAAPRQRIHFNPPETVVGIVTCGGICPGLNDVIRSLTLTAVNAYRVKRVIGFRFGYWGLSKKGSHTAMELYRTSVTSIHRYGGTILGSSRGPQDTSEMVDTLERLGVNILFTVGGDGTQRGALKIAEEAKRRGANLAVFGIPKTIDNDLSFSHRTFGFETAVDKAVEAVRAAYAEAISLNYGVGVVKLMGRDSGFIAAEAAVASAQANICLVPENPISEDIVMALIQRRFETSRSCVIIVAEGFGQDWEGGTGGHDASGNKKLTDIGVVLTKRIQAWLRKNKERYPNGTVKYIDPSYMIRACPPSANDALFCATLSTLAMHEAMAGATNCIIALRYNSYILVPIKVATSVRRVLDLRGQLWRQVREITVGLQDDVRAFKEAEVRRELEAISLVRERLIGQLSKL
Kind of series: SPR steady state, His6-PFK captured on Ni-NTA chip. In kind it is binding. An excerpt:
SPR steady state, His6-PFK captured on Ni-NTA chip on TcPFK (Trypanosoma cruzi phosphofructokinase)

Substrate in series [4]: Nc1nc2c(ncn2[C@@H]2O[C@H](COP(=O)(O)OP(=O)(O)OP(=O)(O)O)[C@@H](O)[C@H]2O)c(=O)[nH]1
Kind of series: pyruvate kinase-lactate dehydrogenase coupled assay, A340, sigmoidal fit. In kind it is biochemical, Trypanosoma cruzi. The note with it: 3 mM F6P, no AMP, 10 mM MgCl2, 100 mM KCl, pH 7.4, 25 °C. An excerpt:
pyruvate kinase-lactate dehydrogenase coupled assay, A340, sigmoidal fit on TcPFK (Trypanosoma cruzi phosphofructokinase)

Substrate in series [5]: Nc1nc2c(ncn2[C@@H]2O[C@H](COP(=O)(O)OP(=O)(O)OP(=O)(O)O)[C@@H](O)[C@H]2O)c(=O)[nH]1
Described as above. In kind it is biochemical, Trypanosoma brucei. The note with it: 3 mM F6P, no AMP, 10 mM MgCl2, 100 mM KCl, pH 7.4, 25 °C. An excerpt:
pyruvate kinase-lactate dehydrogenase coupled assay, A340, sigmoidal fit on TbPFK (Trypanosoma brucei phosphofructokinase)

Series [6] deals with the molecule itself. As to the kind of experiment: crystal structure; TbPFK at 6 mg/mL in gel filtration buffer with 1 mM F16BP, 1 mM AMP and 500 µM PFK inhibitor, hanging drop, 18 °C, 9.5% PEG 8000, 0.1 M sodium cacodylate pH 7.4; only AMP seen bound; two tetramers in the asymmetric unit. Background: Size exclusion chromatography separates by hydrodynamic size, large species first.

Turning to `Nc1ncnc2c1ncn2[C@@H]1O[C@H](COP(=O)(O)OP(=O)(O)O)[C@@H](O)[C@H]1O` [ADP], the figures for the Kd in series [1], in series [2] and in series [3] were 560 µM, 160 µM and 730 µM, respectively.
The like results for `Nc1ncnc2c1ncn2[C@@H]1O[C@H](COP(=O)(O)O)[C@@H](O)[C@H]1O` [AMP] were, in that order, 470 µM, 2300 µM and 1040 µM.
The like results for `Nc1ncnc2c1ncn2[C@@H]1O[C@H](COP(=O)(O)OP(=O)(O)OP(=O)(O)O)[C@@H](O)[C@H]1O` [ATP] were, in that order, 15.8 µM, 16.8 µM and 35.4 µM.

B1: TcPFK (Trypanosoma cruzi phosphofructokinase) (Trypanosoma cruzi strain CL Brener) (protein)
chain: MENRLRDTSRVVRSHAAPLNEVTQEDLKVERLHGRKYMNPSKKHVMREEFSDKIEHIMHDPRPQEGVHSELPVSISPLLCELAAPRQRIHFNPPETVVGIVTCGGICPGLNDVIRSLTLTAVNAYRVKRVIGFRFGYWGLSKKGSHTAMELYRTSVTSIHRYGGTILGSSRGPQDTSEMVDTLERLGVNILFTVGGDGTQRGALKIAEEAKRRGANLAVFGIPKTIDNDLSFSHRTFGFETAVDKAVEAVRAAYAEAISLNYGVGVVKLMGRDSGFIAAEAAVASAQANICLVPENPISEDIVMALIQRRFETSRSCVIIVAEGFGQDWEGGTGGHDASGNKKLTDIGVVLTKRIQAWLRKNKERYPNGTVKYIDPSYMIRACPPSANDALFCATLSTLAMHEAMAGATNCIIALRYNSYILVPIKVATSVRRVLDLRGQLWRQVREITVGLQDDVRAFKEAEVRRELEAISLVRERLIGQLSKL
notes: recombinant, E. coli, purified; N-terminal His6 tag (given for SPR); glycosomal homotetramer
For the molecule B1, in series [4], the K0.5 is 195 (14) μM, the Vmax amounted to 63 µmol/min/mg and the kcat was determined as 58.7 s⁻¹.

B2: Trypanosoma brucei phosphofructokinase (enzyme)
chain: MAVESRSRVTSKLVKAHRAMLNSVTQEDLKVDRLPGADYPNPSKKYSSRTEFRDKTDYIMYNPRPRDEPSSENPVSVSPLLCELAAARSRIHFNPTETTIGIVTCGGICPGLNDVIRSITLTGINVYNVKRVIGFRFGYWGLSKKGSQTAIELHRGRVTNIHHYGGTILGSSRGPQDPKEMVDTLERLGVNILFTVGGDGTQRGALVISQEAKRRGVDISVFGVPKTIDNDLSFSHRTFGFQTAVEKAVQAIRAAYAEAVSANYGVGVVKLMGRDSGFIAAQAAVASAQANICLVPENPISEQEVMSLLERRFCHSRSCVIIVAEGFGQDWGRGSGGYDASGNKKLIDIGVILTEKVKAFLKANKSRYPDSTVKYIDPSYMIRACPPSANDALFCATLATLAVHEAMAGATGCIIAMRHNNYILVPIKVATSVRRVLDLRGQLWRQVREITVDLGSDVRLARKLEIRRELEAINRNRDRLHEELAKL
notes: ATP-dependent phosphofructokinase of Trypanosoma brucei; 53-kDa subunit; residues up to 486 are named in the structure; The N-terminal His6 tag is stated for the SPR experiments and 'His-tagged TbPFK' for the kinetics; also called TbPFK; T. brucei PFK
On to B2, for which, in series [5], the K0.5 was 123 (8) μM, the Vmax worked out at 38.3 µmol/min/mg and the kcat is 35.6 s⁻¹. Also, the “stoichiometry N” value in series [6] was found to be 4.

A word on the Kd: it is the concentration at which binding is half-saturated. In general, Vmax refers to the top rate of the reaction or transport when substrate is in excess. In general, kcat refers to the maximal rate divided by the concentration of active sites. The stoichiometry N is a count of units in the complex or per binding partner.
